In patent US20140039007A1, “COMPOSITIONS AND METHODS FOR MODULATING FARNESOID X RECEPTORS” (priority 2010, published 2014):
pEC50: −log10 of the molar value.

Target: T1, human GST-FXR LBD (Homo sapiens, UniProt Q96RI1)
T1 construct: purchased Invitrogen
T1 sequence (Q96RI1 193-472 isoform Q96RI1-2): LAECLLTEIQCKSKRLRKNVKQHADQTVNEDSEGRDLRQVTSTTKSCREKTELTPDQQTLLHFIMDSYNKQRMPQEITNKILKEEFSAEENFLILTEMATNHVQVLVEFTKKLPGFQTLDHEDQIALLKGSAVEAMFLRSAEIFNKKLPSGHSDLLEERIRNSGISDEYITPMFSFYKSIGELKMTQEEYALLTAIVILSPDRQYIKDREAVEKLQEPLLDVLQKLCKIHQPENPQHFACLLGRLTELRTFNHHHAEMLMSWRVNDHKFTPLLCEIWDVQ
Assay: Human GST-FXR LBD Co-activator interaction Assay (FXR HTRF assay)
Assay type: biochemical
Conditions: GST-FXR LBD / biotin-labeled SRC-1 peptide, response relative to GW4064
Source text: Human GST-FXR LBD Co-activator interaction Assay.
The FXR HTRF assay is a biochemical assay measuring the interaction between FXR and a coactivator protein (SRC1). The ligand-induced interaction with a coactivator protein is a critical step in transcriptional activation by FXR. Thus, this is an assay designed to measure FXR agonist activity of compounds.
Recombinant human Farnesoid X Receptor (FXR) ligand binding domain (amino acids 193-472) fused to glutathione S-transferase (GST) purified protein (GST-FXR LBD) was purchased (Invitrogen). The ligand-dependent interaction between GST-FXR LBD and a peptide derived from Steroid Receptor Coactivator-1 (SRC-1) was monitored by Fluorescence Resonance Energy Transfer (FRET). GST-FXR LBD was mixed with a biotin-labeled SRC-1 peptide (Sequence: Biotin-[…]-SPS-CONH2, American Peptide) in assay buffer (50 mM Tris HCl, pH 7.4, 50 mM NaCl, 1 mM TCEP and 0.2% bovine serum albumen) and plated in 384 black Proxi plates (Greiner Bio-One). Test compounds (in DMSO solution) and detection reagents (anti-GST-Cryptate labeled antibody and Streptavidin-XL665 conjugate; CisBio) were added in assay buffer containing 50 mM KF. Plates are incubated at room temperature in the dark for 2.5 hours before reading on an Envision (PerkinElmer) at 665 nm and 590 nm. The HTRF assay results were calculated from the 665 nm/590 nm ratio (ratio=(A665 nm/A590 nm)×10^4) and expressed in Delta F %=(Ratiosample−Rationegative)/Rationegative×100.
A negative control (without Streptavidin-XL665) was run with each assay and represented the background fluorescence. A reference FXR agonist, GW4064, was included in each experiment as positive control. The efficacy of each test compound was compared to that of GW4064. At each concentration, the relative activity of the test compound was expressed as Response %=(Rsample−RDMSO)/(Rpositive−RDMSO), where Rsample is the HTRF response, (expressed in Delta F %) for the test compound, Rpositive is the maximal response for GW4064 at saturating concentrations, and RDMSO is the response for DMSO control. The EC50 values were calculated using GraphPad Prism (GraphPad Software) using non-linear regression curve fit (log(agonist) vs. response−variable slope (four parameters)).

SMILES | pEC50
COC(=O)c1ccc(-c2nc(N3CCC(OCc4c(-c5c(Cl)cccc5Cl)noc4C4CC4)CC3)no2)s1 [Example 8A, methyl 5-[3-(4-{[5-cyclopropyl-3-(2,6-dichlorophenyl)-1,2-oxazol-4-yl]methoxy}piperidin-1-yl)-1,2,4-oxadiazol-5-yl]thiophene-2-carboxylate] | 5.53
COC(=O)c1cccc(-c2nc(N3CCC(OCc4c(-c5ccccc5OC(F)(F)F)noc4C4CC4)CC3)no2)c1 [Example 2A, methyl 3-{3-[4-({5-cyclopropyl-3-[2-(trifluoromethoxy)phenyl]-1,2-oxazol-4-yl}methoxy)piperidin-1-yl]-1,2,4-oxadiazol-5-yl}benzoate] | 5.69
O=C(O)c1ccc(-c2nc(N3CCC(OCc4c(-c5ccccc5C(F)(F)F)noc4C4CC4)CC3)no2)cc1 [Example 11, 4-{3-[4-({5-cyclopropyl-3-[2-(trifluoromethyl)phenyl]-1,2-oxazol-4-yl}methoxy)piperidin-1-yl]-1,2,4-oxadiazol-5-yl}benzoic acid] | 6.23
COC(=O)C1CCC(c2nc(N3CCC(OCc4c(-c5c(Cl)cccc5Cl)noc4C4CC4)CC3)no2)C1 (stereo not shown) [Example 7A, methyl-3-[3-(4-{[5-cyclopropyl-3-(2,6-dichlorophenyl)-1,2-oxazol-4-yl]methoxy}piperidin-1-yl)-1,2,4-oxadiazol-5-yl]cyclopentane-1-carboxylate] | 5.80
O=C(O)C1CCC(c2nc(N3CCC(OCc4c(-c5c(Cl)cccc5Cl)noc4C4CC4)CC3)no2)CC1 (stereo not shown) [Example 6B, 4-[3-(4-{[5-cyclopropyl-3-(2,6-dichlorophenyl)-1,2-oxazol-4-yl]methoxy}piperidin-1-yl)-1,2,4-oxadiazol-5-yl]cyclohexane-1-carboxylic acid] | 6.08
O=C(O)c1ccc(-c2nc(N3CCC(OCc4c(-c5ccccc5OC(F)(F)F)noc4C4CC4)CC3)no2)s1 [Example 3B, 5-{3-[4-({5-cyclopropyl-3-[2-(trifluoromethoxy)phenyl]-1,2-oxazol-4-yl}methoxy)piperidin-1-yl]-1,2,4-oxadiazol-5-yl}thiophene-2-carboxylic acid] | 6.56
O=C(O)c1cccc(-c2nc(N3CCC(OCc4c(-c5c(Cl)cccc5Cl)noc4C4CC4)CC3)no2)n1 [Example 9B, 6-[3-(4-{[5-cyclopropyl-3-(2,6-dichlorophenyl)-1,2-oxazol-4-yl]methoxy}piperidin-1-yl)-1,2,4-oxadiazol-5-yl]pyridine-2-carboxylic acid] | 6.89
COC(=O)c1ccc(-c2nc(N3CCC(OCc4c(-c5ccccc5OC(F)(F)F)noc4C4CC4)CC3)no2)s1 [Example 3A, methyl 5-{3-[4-({5-cyclopropyl-3-[2-(trifluoromethoxy)phenyl]-1,2-oxazol-4-yl}methoxy)piperidin-1-yl]-1,2,4-oxadiazol-5-yl}thiophene-2-carboxylate] | 6.02
O=C(O)c1cccc(-c2nc(N3CCC(OCc4c(-c5c(Cl)cccc5Cl)noc4C4CC4)CC3)no2)c1 [Example 5B, 3-[3-(4-{[5-cyclopropyl-3-(2,6-dichlorophenyl)-1,2-oxazol-4-yl]methoxy}piperidin-1-yl)-1,2,4-oxadiazol-5-yl]benzoic acid] | 7.22
O=C(O)c1cccc(-c2nc(N3CCC(OCc4c(-c5ccccc5OC(F)(F)F)noc4C4CC4)CC3)no2)c1 [Example 2B, 3-{3-[4-({5-cyclopropyl-3-[2-(trifluoromethoxy)phenyl]-1,2-oxazol-4-yl}methoxy)piperidin-1-yl]-1,2,4-oxadiazol-5-yl}benzoic acid] | 6.89
COC(=O)c1ccc(-c2nc(N3CCC(OCc4c(-c5c(Cl)cccc5Cl)noc4C4CC4)CC3)no2)cc1 [Example 4A] | 6.09
COC(=O)C1CCC(c2nc(N3CCC(OCc4c(-c5c(Cl)cccc5Cl)noc4C4CC4)CC3)no2)CC1 (stereo not shown) [Example 6A, methyl 4-[3-(4-{[5-cyclopropyl-3-(2,6-dichlorophenyl)-1,2-oxazol-4-yl]methoxy}piperidin-1-yl)-1,2,4-oxadiazol-5-yl]cyclohexane-1-carboxylate] | 5.79
O=C(O)c1ccc(-c2nc(N3CCC(OCc4c(-c5c(Cl)cccc5Cl)noc4C4CC4)CC3)no2)cc1 [Example 4B] | 6.94
O=C(O)c1ccc(-c2nc(N3CCC(OCc4c(-c5ccccc5OC(F)(F)F)noc4C4CC4)CC3)no2)cc1 [Example 1B, 4-(3-(4-((5-cyclopropyl-3-(2-(trifluoromethoxy)phenyl)isoxazol-4-yl)methoxy)piperidin-1-yl)-1,2,4-oxadiazol-5-yl)benzoic acid] | 7.05
O=C(O)c1ccc(-c2nc(N3CCC(OCc4c(-c5c(F)cccc5F)noc4C4CC4)CC3)no2)cc1 [Example 10, 4-[3-(4-{[5-cyclopropyl-3-(2,6-difluorophenyl)-1,2-oxazol-4-yl]methoxy}piperidin-1-yl)-1,2,4-oxadiazol-5-yl]benzoic acid] | 6.03
COC(=O)c1ccc(-c2nc(N3CCC(OCc4c(-c5ccccc5OC(F)(F)F)noc4C4CC4)CC3)no2)cc1 [Example 1A, Methyl 4-(3-(4-((5-cyclopropyl-3-(2-(trifluoromethoxy)phenyl)isoxazol-4-yl)methoxy)piperidin-1-yl)-1,2,4-oxadiazol-5-yl)benzoate] | 5.62
O=C(O)c1ccc(-c2nc(N3CCC(OCc4c(-c5c(Cl)cccc5Cl)noc4C4CC4)CC3)no2)s1 [Example 8B, 5-[3-(4-{[5-cyclopropyl-3-(2,6-dichlorophenyl)-1,2-oxazol-4-yl]methoxy}piperidin-1-yl)-1,2,4-oxadiazol-5-yl]thiophene-2-carboxylic acid] | 6.98
COC(=O)c1cccc(-c2nc(N3CCC(OCc4c(-c5c(Cl)cccc5Cl)noc4C4CC4)CC3)no2)n1 [Example 9A, methyl 6-[3-(4-{[5-cyclopropyl-3-(2,6-dichlorophenyl)-1,2-oxazol-4-yl]methoxy}piperidin-1-yl)-1,2,4-oxadiazol-5-yl]pyridine-2-carboxylate] | 6.33
O=C(O)C1CCC(c2nc(N3CCC(OCc4c(-c5c(Cl)cccc5Cl)noc4C4CC4)CC3)no2)C1 (stereo not shown) [Example 7B, 3-[3-(4-{[5-cyclopropyl-3-(2,6-dichlorophenyl)-1,2-oxazol-4-yl]methoxy}piperidin-1-yl)-1,2,4-oxadiazol-5-yl]cyclopentane-1-carboxylic acid] | 5.81
